Measurements: patent US9624280B2 (JANSSEN BIOTECH, INC., priority 2013, dated 2017)
No end group written: not given here.

Columns and labels:
human Nav1.6 = molecular target: T1, human Nav1.6 (Homo sapiens, UniProt Q9UQD0); type: cell-based
T1 construct: expressed in transfected cells

human Nav1.7 = molecular target: T2, human Nav1.7 (Homo sapiens, UniProt Q15858, W1161R); type: cell-based
T2 construct: expressed in transfected cells

C57Bl/6 mice = assay: CFA model of inflammatory pain, thermal hyperalgesia (Hargreaves test); type: in vivo; conditions: for Thermal MPE %: CFA model, mice, mean±s.e.m. (n)
Method: Male C57Bl/6 mice (24-26 g), ordered from Charles River and housed individually, were used for this study.
This box consists of a chamber with a raised glass floor maintained at a constant temperature (27° C.). The thermal nociceptive stimulus originates from a projection bulb light beam below the glass surface. The light beam is aimed at the area between toris (center plantar). The “start” button will turn on the light and start the timer. Movements (such as a sudden withdrawal) of the stimulated paw will trigger the switch to turn off the light and stop the timer. […] If no movement occurs, the bulb will be turned off after 20 seconds (cutoff) to prevent tissue injury. The animals were allowed to habituate on the glass surface for 30-60 minutes before PWL measurement.
Percent maximum possible effect (MPE %)=(T1−T0)/(Tc−T0)×100%. T0: threshold on day0 (post-CFA, pre-pump); T1: threshold on day1 post pump implantation; Tc: cut-off of the test (20 s for the Hargreaves test and 2 g for the Von Frey test)
Animals were anesthetized with isoflurane (4% induction and 2% maintenance) and 20 μL of 100% Complete Freund's Adjuvant (CFA; Sigma-Aldrich; Saint Louis, Mo.) was injected into the center plantar area on one hind paw using a 27 gauge needle attached to a 50 μL Hamilton syringe. Carrageenan model: Animals were anesthetized with isoflurane (4% induction and 2% maintenance) and 25 μL of 2% A-carrageenan (Sigma-Aldrich; Saint Louis, Mo.) dissolved in normal saline was injected into the center plantar area on hind paws using an insulin syringe (BD; Franklin Lakes, N.J.).
Alzet micro-osmotic mini pumps (Durect Corporation Model 1003D and 2001D) were filled and primed per manufacturer's guide. Mice were anesthetized with isoflurane (5% induction; 2% maintenance). Their backs were shaved, wiped down with isopropyl alcohol and povidone iodine, and a small incision was made between the scapulae. Using a pair of forceps or hemostat, a small pocket was formed by spreading the subcutaneous connective tissues apart. The pump was inserted into the pocket with the flow moderator pointing away from the incision. The skin incision was then closed using 7 mm staples and the animals were allowed to recover in their home cages.
Data are represented as mean±s.e.m. Prism (Graphpad Software Inc., La Jolla, Calif.) was used for graphing and statistical analysis. For comparison of threshold values over time, a two-way ANOVA followed by Bonferroni's multiple comparison test was used with a significance level of p<0.05. Hotplate and MPE % data were analyzed by one-way ANOVA followed by Bonferroni's multiple comparison test.

[1] = 228 μg/day/mouse by subcutaneous osmotic mini-pump
[2] = 1824 μg/day/mouse by subcutaneous osmotic mini-pump
[3] = 684 and 1824 μg/day, subcutaneous osmotic mini-pump

T1 sequence (Q9UQD0 whole entry): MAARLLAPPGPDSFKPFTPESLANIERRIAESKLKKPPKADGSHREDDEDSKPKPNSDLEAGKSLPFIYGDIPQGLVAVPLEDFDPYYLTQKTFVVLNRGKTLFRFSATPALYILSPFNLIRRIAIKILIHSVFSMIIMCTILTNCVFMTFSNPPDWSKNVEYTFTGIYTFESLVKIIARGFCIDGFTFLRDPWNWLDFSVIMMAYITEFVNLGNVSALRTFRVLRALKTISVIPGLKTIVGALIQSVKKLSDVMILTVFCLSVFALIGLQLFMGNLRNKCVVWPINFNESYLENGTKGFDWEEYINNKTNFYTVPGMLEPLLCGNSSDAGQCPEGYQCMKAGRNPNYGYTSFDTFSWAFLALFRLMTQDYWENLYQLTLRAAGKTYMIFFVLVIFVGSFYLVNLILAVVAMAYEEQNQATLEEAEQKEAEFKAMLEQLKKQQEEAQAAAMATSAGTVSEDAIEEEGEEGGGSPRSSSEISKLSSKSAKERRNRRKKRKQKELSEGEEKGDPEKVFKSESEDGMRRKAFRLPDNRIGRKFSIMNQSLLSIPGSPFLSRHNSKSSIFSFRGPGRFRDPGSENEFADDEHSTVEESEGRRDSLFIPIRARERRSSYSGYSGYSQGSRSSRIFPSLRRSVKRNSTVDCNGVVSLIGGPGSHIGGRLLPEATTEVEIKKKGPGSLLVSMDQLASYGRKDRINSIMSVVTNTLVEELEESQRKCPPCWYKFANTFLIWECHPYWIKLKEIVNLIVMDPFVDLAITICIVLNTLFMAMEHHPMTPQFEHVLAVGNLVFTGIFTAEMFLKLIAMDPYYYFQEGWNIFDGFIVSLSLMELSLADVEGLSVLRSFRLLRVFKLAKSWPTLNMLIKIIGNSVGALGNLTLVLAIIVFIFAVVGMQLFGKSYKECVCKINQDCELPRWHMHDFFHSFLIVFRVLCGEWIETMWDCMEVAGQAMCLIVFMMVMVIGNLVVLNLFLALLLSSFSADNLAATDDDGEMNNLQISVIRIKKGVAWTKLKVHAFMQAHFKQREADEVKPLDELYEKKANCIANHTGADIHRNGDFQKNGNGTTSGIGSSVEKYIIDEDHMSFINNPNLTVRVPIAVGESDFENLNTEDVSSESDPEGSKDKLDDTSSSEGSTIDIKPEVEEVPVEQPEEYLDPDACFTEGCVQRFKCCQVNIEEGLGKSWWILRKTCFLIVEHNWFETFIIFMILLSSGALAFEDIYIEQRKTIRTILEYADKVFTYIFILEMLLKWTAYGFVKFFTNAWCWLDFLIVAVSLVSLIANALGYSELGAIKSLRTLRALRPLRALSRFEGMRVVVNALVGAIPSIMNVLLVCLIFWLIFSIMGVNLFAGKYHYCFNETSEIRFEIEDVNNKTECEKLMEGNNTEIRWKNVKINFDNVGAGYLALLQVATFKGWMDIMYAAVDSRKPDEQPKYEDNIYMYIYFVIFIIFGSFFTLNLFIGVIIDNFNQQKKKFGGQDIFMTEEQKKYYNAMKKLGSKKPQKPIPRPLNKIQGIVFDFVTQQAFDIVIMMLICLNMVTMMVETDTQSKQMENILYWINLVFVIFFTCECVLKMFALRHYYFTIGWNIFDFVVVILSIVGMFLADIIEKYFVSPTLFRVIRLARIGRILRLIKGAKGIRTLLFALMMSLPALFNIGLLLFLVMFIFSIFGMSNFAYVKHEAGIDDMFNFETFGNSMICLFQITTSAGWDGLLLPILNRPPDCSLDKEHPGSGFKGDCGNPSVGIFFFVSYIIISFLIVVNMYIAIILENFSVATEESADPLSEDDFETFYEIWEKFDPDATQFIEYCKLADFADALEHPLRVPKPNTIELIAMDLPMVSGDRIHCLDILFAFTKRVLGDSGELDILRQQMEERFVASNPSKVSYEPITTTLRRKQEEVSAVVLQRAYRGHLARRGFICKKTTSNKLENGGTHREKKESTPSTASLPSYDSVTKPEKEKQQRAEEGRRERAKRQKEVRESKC

Substance: GPQCQKWMQTCDRNRKCCEGFVCTLWCRKKLW-OH (cysteine pairing not given here) [NV1D3044]
- selectivity for Nav1.7 compared to recombinant Protoxin-II (human Nav1.6): improved selectivity

Substance: GPCCNCSSKWCRDHSRCCGRGSAPAPAPAPAPAPAPAPAPAPGSQCQKWMQTCDRERKCCEGFVCTLWCRKKLW [NV1D3793]
- IC50 (human Nav1.7): 64.6 nM

Substance: GPQCQKWMQTCDRTRKCCEGFVCTLWCRKKLW-NH2 [NV1D3368-NH2]
- selectivity for Nav1.7 compared to recombinant Protoxin-II (human Nav1.6): improved selectivity
- Thermal MPE % (C57Bl/6 mice; [1]): 27 ± 4 (4) %
- Thermal MPE % (C57Bl/6 mice; [2]): 55 ± 15 (6) %
- reversal of CFA-induced thermal hyperalgesia (C57Bl/6 mice; dose not given): readily reversed

Substance: Ac-QCQKWMQTCDRERKCCEGFVCTLWCRKKLW-NH2 [(-GP) N-Ac-NV1D3034-NH2]
- selectivity for Nav1.7 compared to recombinant Protoxin-II (human Nav1.6): improved selectivity

Substance: GPGWCGDPGATCGKLRLYCCSGFCDAYTKTCKDKSSAGGGGSAPAPAPAPAPAPAPAPAPAPAPAPAPAPAPGGGGSQCQKWMQTCDRERKCCEGFVCTLWCRKKLW [NV1D3824]
- IC50 (human Nav1.7): 110 nM

Substance: GPRCQKWMQTCDAERKCCEGFVCRLWCKKKLW-OH (cysteine pairing not given here) [NV1D2772]
- selectivity for Nav1.7 compared to recombinant Protoxin-II (human Nav1.6): improved selectivity

Substance: GPQCQKWMQTCDRERKCCEGFVCTLWCRKKLW-OH (cysteine pairing not given here) [NV1D3034]
- reversal of CFA-induced thermal hyperalgesia (C57Bl/6 mice; [3]): completely reversed
- Thermal MPE % (C57Bl/6 mice; [1]): 22 ± 6 (6) %
- Thermal MPE % (C57Bl/6 mice; [2]): 50 ± 6 (8) %

Substance: GPYCQKWMQTCDANRKCCEGFSCRLWCKKKLW-OH (cysteine pairing not given here) [NV1D3586]
- selectivity for Nav1.7 compared to recombinant Protoxin-II (human Nav1.6): improved selectivity

Substance: GPQCQKWMQTCDAERKCCEGFVCRLWCKKKLWGSAPAPAPAPAPAPAPAPAPAPGSCCNCSSKWCRDHSRCCGR [NV1D3259]
- IC50 (human Nav1.7): 54.9 nM

Substance: GPCCNCSSKWCRDHSRCCGRGSAPAPAPAPAPGSQCQKWMQTCDAERKCCEGFVCRLWCKKKLW [NV1D3256]
- IC50 (human Nav1.7): 55.7 nM

Substance: GPSHSNTQTLAKAPEHTGAPAPAPAPAPAPAPAPAPAPQCQKWMQTCDRERKCCEGFVCTLWCRKKLW [NV1D3774]
- IC50 (human Nav1.7): 88.6 nM

Substance: GPQCQKWMQTCDRERKCCEGFVCTLWCRKKLW-NH2 [NV1D3034-NH2]
- selectivity for Nav1.7 compared to recombinant Protoxin-II (human Nav1.6): improved selectivity

Substance: GPQCQKWMQTCDRERKCCEGFVCTLWCRKKLWGSAPAPAPAPAPGSCCNCSSKWCRDHSRCCGR [NV1D3800]
- IC50 (human Nav1.7): 60.9 nM

Substance: GPACQKWMQTCDRNRKCCEGFVCTLWCRKKLW-OH (cysteine pairing not given here) [NV1D3541]
- selectivity for Nav1.7 compared to recombinant Protoxin-II (human Nav1.6): improved selectivity

Substance: GPQCQKWMQTCDRERKCCEGFVCTLWCRKKLWGSAPAPAPAPAPAPAPAPAPAPGSCCNCSSKWCRDHSRCCGR [NV1D3798]
- IC50 (human Nav1.7): 94.5 nM

Substance: GPQCQKWMQTCDRERKCCEGFVCTLWCRKKLWGGGGSAPAPAPAPAPAPAPAPAPAPAPAPAPAPAPGGGGSGWCGDPGATCGKLRLYCCSGFCDAYTKTCKDKSSA [NV1D3825]
- IC50 (human Nav1.7): 194 nM

Substance: GPQCQKWMQTCDRTRKCCEGFVCTLWCRKKLW-OH (cysteine pairing not given here) [NV1D3368]
- selectivity for Nav1.7 compared to recombinant Protoxin-II (human Nav1.6): improved selectivity
- reversal of CFA-induced thermal hyperalgesia (C57Bl/6 mice; [3]): fully reversed
- Thermal MPE % (C57Bl/6 mice; [1]): 23 ± 8 (7) %
- Thermal MPE % (C57Bl/6 mice; [2]): 47 ± 6 (8) %

Substance: GPCCNCSSKWCRDHSRCCGRGSAPAPAPAPAPAPAPAPAPAPGSQCQKWMQTCDAERKCCEGFVCRLWCKKKLW [NV1D3260]
- IC50 (human Nav1.7): 57.6 nM

Substance: GPQCQKWMQTCDRERKCCEGFVCTLWCRKKLW-NH-methyl [NV1D3034-NH-methyl]
- selectivity for Nav1.7 compared to recombinant Protoxin-II (human Nav1.6): improved selectivity
- Thermal MPE % (C57Bl/6 mice; [2]): 49 ± 17 (6) %
- reversal of CFA-induced thermal hyperalgesia (C57Bl/6 mice; dose not given): readily reversed

Substance: GPQCQKWMQTCDAERKCCEGFSCTLWCKKKLW-NH2 [NV1D2974-NH2]
- selectivity for Nav1.7 compared to recombinant Protoxin-II (human Nav1.6): improved selectivity

Substance: GPQCQKWMQTCDRERKCCEGFVCTLWCRKKLWGSGGGGSAPAPAPAPAPAPAPAPAPAPGGGGSGSCCNCSSKWCRDHSRCC [NV1D3829]
- IC50 (human Nav1.7): 122 nM

Substance: GPYCQKWMQTCDANRKCCEGFSCRLWCKKKLW-NH2 [NV1D3586-NH2]
- selectivity for Nav1.7 compared to recombinant Protoxin-II (human Nav1.6): improved selectivity

Substance: GPQCQKWMQSCDRERKCCEGFVCTLWCRKKLW-OH (cysteine pairing not given here) [NV1D3359]
- selectivity for Nav1.7 compared to recombinant Protoxin-II (human Nav1.6): improved selectivity

Substance: Ac-QCQKWMQTCDAERKCCEGFSCTLWCKKKLW-NH2 [(-GP) N-Ac-NV1D2974-NH2]
- selectivity for Nav1.7 compared to recombinant Protoxin-II (human Nav1.6): improved selectivity

Substance: GPQCQKWMQTCDRERKCCEGFVCTLWCRKKLWGSAPAPAPAPAPGSCCNCSSKWCRDHSRCC [NV1D3799]
- IC50 (human Nav1.7): 50.6 nM

Substance: GPQCQKWMQTCDRERKCCEGFVCTLWCRKKLWGSGGGGSAPAPAPAPAPAPAPAPAPAPGGGGSGSCCNCSSKWCRDHSRCCGR [NV1D3828]
- IC50 (human Nav1.7): 87.5 nM

Substance: GPCCNCSSKWCRDHSRCCGRGSGGGGSAPAPAPAPAPAPAPAPAPAPGGGGSGSQCQKWMQTCDRERKCCEGFVCTLWCRKKLW [NV1D3830]
- IC50 (human Nav1.7): 88.6 nM

Substance: GPQCQKWMQTCDAERKCCEGFVCRLWCKKKLW-NH2 [NV1D2775-NH2]
- selectivity for Nav1.7 compared to recombinant Protoxin-II (human Nav1.6): improved selectivity

Substance: GPCCNCSSKWCRDHSRCCGSAPAPAPAPAPAPAPAPAPAPGSQCQKWMQTCDRERKCCEGFVCTLWCRKKLW [NV1D3795]
- IC50 (human Nav1.7): 100 nM

Substance: GPGWCGDPGATCGKLRLYCCSGFCDSYTKTCKDKSSAGGGGSAPAPAPAPAPAPAPAPAPAPAPAPAPAPAPGGGGSQCQKWMQTCDRERKCCEGFVCTLWCRKKLW [NV1D3822]
- IC50 (human Nav1.7): 74.2 nM

Substance: GPQCQKWMQTCDAERKCCEGFSCTLWCKKKLW-OH (cysteine pairing not given here) [NV1D2974]
- selectivity for Nav1.7 compared to recombinant Protoxin-II (human Nav1.6): improved selectivity

Substance: GPCCNCSSKWCRDHSRCCGSAPAPAPAPAPGSQCQKWMQTCDRERKCCEGFVCTLWCRKKLW [NV1D3796]
- IC50 (human Nav1.7): 110 nM

Substance: GPQCQKWMQTCDRERKCCQGFVCTLWCRKKLW-OH (cysteine pairing not given here) [NV1D3388]
- selectivity for Nav1.7 compared to recombinant Protoxin-II (human Nav1.6): improved selectivity

Substance: GPCCNCSSKWCRDHSRCCGSAPAPAPAPAPAPAPAPAPAPGSQCQKWMQTCDAERKCCEGFVCRLWCKKKLW [NV1D3262]
- IC50 (human Nav1.7): 89.2 nM

Substance: GPQCQKWMQTCDRERKCCEGFVCTLWCRKKLWGSAPAPAPAPAPAPAPAPAPAPGSCCNCSSKWCRDHSRCC [NV1D3797]
- IC50 (human Nav1.7): 91.1 nM

Substance: GPCRTIGPSVCAPAPAPAPAPAPAPAPAPAPQCQKWMQTCDRERKCCEGFVCTLWCRKKLW [NV1D3832]
- IC50 (human Nav1.7): 88.4 nM

Substance: GPQCQKWMQTCDARRKCCEGFVCRLWCKKKLW-OH (cysteine pairing not given here) [NV1D3006]
- selectivity for Nav1.7 compared to recombinant Protoxin-II (human Nav1.6): improved selectivity

Substance: GPQCQKWMQTCDRERKCCEGFVCTLWCRKKLW-NH-butyl [NV1D3034-NH-butyl]
- selectivity for Nav1.7 compared to recombinant Protoxin-II (human Nav1.6): improved selectivity

Substance: GPACQKWMQTCDANRKCCEGFSCRLWCKKKLW-OH (cysteine pairing not given here) [NV1D3587]
- selectivity for Nav1.7 compared to recombinant Protoxin-II (human Nav1.6): improved selectivity
